Legend:
[1] = Saturation concentration of CXB in oily phases, surfactants and co-surfactants/co-solvents; format: physicochemical; details: 30 °C
Method: To assess the saturation concentration of CXB in different oily phases (Capryol 90, Captex 200 P, Captex 355 EP/NF, isopropyl myristate, Maisine CC, and Peceol), surfactants (Cremophor RH40, Labrasol, Tween 20, and Tween 80), and co-surfactants/co-solvents (Capmul PG-8 NF, PEG 400, Plurol oleique CC 497, and tetraglycol), an excess amount of CXB was added to the liquid excipients and placed in a tube rotator at 20 rpm and 30 °C for a day. After that, samples were centrifuged at 14,000 rpm for 20 min and the supernatant was appropriately diluted in methanol. The drug concentration was determined at 252 nm with a UV-VIS spectrophotometer Unicam UV 500A (Gemini, Apeldoorn, The Netherlands).

[2] = pH 7; cited from earlier work
[3] = design: method as in PMID 26146768; details: cited from earlier work
[4] = design: method as in PMID 26401428; details: cited from earlier work
[5] = design: method as in PMID 14603484; details: rats; cited from earlier work

Cc1ccc(-c2cc(C(F)(F)F)nn2-c2ccc(S(N)(=O)=O)cc2)cc1 [CXB, Celecoxib]
solubility of CXB in surfactants ([1]; Tween 20, Tween 80, cremophor RH40, Labrasol ALF): comparable CXB solubilities
solubility of CXB in co-surfactants/co-solvents ([1]; in PEG 400 and tetraglycol): highest solubility
solubility of CXB in oily phases ([1]; in capryol 90, among six oily phases): highest amount
solubility [2]: 3 to 7 µg/mL

C[C@]12C=CC(=O)C=C1CC[C@@H]1[C@@H]2[C@@H](O)C[C@@]2(C)[C@H]1CC[C@]2(O)C(=O)CO [prednisolone]
effect of pH-dependent colon targeted film coating on in vitro release profile of solid SMEDDS [3]: not impacted

CCCCCCCCCCCCOS(=O)(=O)[O-].[Na+] [SDS, sodium dodecyl sulfate]
critical micelle concentration [4]: 8 mM

CC(=O)O[C@H]1C(=O)[C@@]2(C)[C@H]([C@H](OC(=O)c3ccccc3)[C@]3(O)C[C@H](OC(=O)[C@H](O)[C@@H](NC(=O)c4ccccc4)c4ccccc4)C(C)=C1C3(C)C)[C@]1(OC(C)=O)CO[C@@H]1C[C@@H]2O [paclitaxel]
higher bioavailability by HPMC precipitation inhibition in SEDDS [5]: 5 fold

— paper PMC8156508, “Ileo-Colon Targeting of the Poorly Water-Soluble Drug Celecoxib Using a pH-Dependent Coating in Combination with Self-Emulsifying Drug Delivery or Solid Dispersion Systems” (Pharmaceutics, 2021)
